Molecules are shown by their SMILES.

This test concerns the target thromboxane A2 receptor (TBXA2R) (Gα12) (Homo sapiens, UniProt P21731). The test is described as follows: BRET² G protein dissociation assay, TBXA2R with Gα12. Type of test: cell-based. As to conditions: for Mean (plotted), G protein dissociation BRET² signal: TBXA2R-G12, Fig. 5c source data. Here is the method: G protein dissociation assays were performed according to the original protocols of the TRUPATH BRET² assay[47],[87] but with subtle modifications as previously described[61],[88],[89]. All reagents and cells were obtained from Thermo Fisher Scientific unless indicated otherwise. The coding sequences for the G protein biosensors[47] (Gα12-Rluc8, Gα13-Rluc8, wt Gβ3, and Gγ9-GFP), the wt GPR55, the construct used for cryo-EM (with GFP bearing a G67A mutation to disrupt fluorescence properties[48] for BRET² assays), GPR55 binding pocket mutants (G152^4.56F, G152^4.56W, N171^ECL2Q, N171^ECL2A, T176^5.33A, R253^6.62A), and the wt TBXA2R were codon-optimized for Homo sapiens, gene-synthesized, and sub-cloned into pcDNA^TM3.1(+) between NheI and HindIII restriction sites by GeneArt (Thermo Fisher Scientific). […] Freshly grown cells were washed with Dulbecco’s Balanced Salt Solution (DPBS, cat. #14200075) and detached using trypsin-ethylenediaminetetraacetic acid (trypsin-EDTA) (cat. #25300-062). Then, the cells were reconstituted to 500,000 cells per mL with fresh medium, and 1,000,000 cells were seeded into each well of a 6-well plate. After 3 h incubation at 37 °C and 5% CO2, adherent cells were transfected with 600 ng DNA (1:1:1:1 ratio of plasmid DNA for GPR55, wt Gβ3, Gγ9-GFP, and Gα12-Rluc8 or Gα13-Rluc8). Plasmid DNA was mixed with 1.5 µL Lipofectamine^TM 2000 (cat. #11668027) in Opti-MEM^TM medium (cat. #31985062) and incubated for 20 min. Then, the mixture was added to each well of the 6-well plate following 24 h incubation at 37 °C and 5% CO2. Transfected cells were washed with DPBS, detached using EDTA (Versene, cat. #15040066), and reconstituted into fresh medium at 500,000 cells mL^−1. From this suspension, 50,000 cells were seeded into each well of a white-bottom 96-well plate (Nunc^TM MicroWell^TM 96 wells, cat. #136101) following overnight incubation at 37 °C and 5% CO2. Then, the adherent cells were washed with assay medium [Hank’s balanced salt solution (HBSS, cat. #14065056) plus 20 mM HEPES pH 7.4 (cat. #15630056)] and finally reconstituted into 50 µL of the same medium. […] Methoxy e-Coelenterazine was used as luciferase substrate (Prolume Purple, NanoLight Technology, cat. #369), reconstituted at 1 mM in methanol and diluted to 37.5 µM with assay buffer (7.5 µM final assay concentration). The assay was started by the addition of 20 µL luciferase substrate to each well of the assay plate using a Multidrop^TM Combi reagent dispenser (Thermo Fisher Scientific), followed by 5 min incubation at room temperature. Then, 30 µL of agonist dilutions or DMSO control was added (final DMSO concentration 1.5%), followed by an additional 5 min incubation at room temperature. BRET² measurements were performed with a PHERAstar® FSX microplate reader (BMG LABTECH) using a BRET² filter (donor emission 370–450 nm, acceptor emission 500–530 nm) at the maximum fluorescence gain of 3600. BRET² ratios were calculated by dividing GFP emission signals from Rluc8 emission counts. Buffer-DMSO controls were subtracted from each data point to calculate ΔBRET² ratios. The half-maximal effective concentration (potency, EC50) and maximal effect (efficacy, Emax) were determined by sigmoidal dose-response curve fit with variable slope.

Sequence of thromboxane A2 receptor (TBXA2R) (Gα12) (P21731 whole entry, species assumed): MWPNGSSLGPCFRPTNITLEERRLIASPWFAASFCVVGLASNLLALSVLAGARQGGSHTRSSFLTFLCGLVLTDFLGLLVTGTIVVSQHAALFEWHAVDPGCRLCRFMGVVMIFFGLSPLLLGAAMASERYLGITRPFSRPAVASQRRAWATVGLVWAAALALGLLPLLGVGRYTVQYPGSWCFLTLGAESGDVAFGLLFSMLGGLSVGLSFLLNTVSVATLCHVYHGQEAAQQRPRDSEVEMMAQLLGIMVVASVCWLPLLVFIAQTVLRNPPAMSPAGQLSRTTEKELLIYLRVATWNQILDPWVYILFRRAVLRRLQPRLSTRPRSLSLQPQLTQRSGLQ
Sequence of thromboxane A2 receptor (TBXA2R) (Gα12) (Q03113 whole entry partner, species assumed): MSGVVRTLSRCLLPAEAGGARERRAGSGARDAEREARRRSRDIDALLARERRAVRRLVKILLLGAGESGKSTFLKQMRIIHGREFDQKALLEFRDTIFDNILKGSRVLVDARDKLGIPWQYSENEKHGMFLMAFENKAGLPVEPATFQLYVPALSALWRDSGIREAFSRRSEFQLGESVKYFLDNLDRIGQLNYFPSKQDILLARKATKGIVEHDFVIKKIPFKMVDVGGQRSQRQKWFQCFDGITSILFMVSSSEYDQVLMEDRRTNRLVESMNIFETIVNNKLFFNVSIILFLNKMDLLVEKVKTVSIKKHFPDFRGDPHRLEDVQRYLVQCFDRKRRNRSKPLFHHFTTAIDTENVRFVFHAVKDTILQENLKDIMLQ
Sequence of thromboxane A2 receptor (TBXA2R) (Gα12) (P16520 whole entry partner, species assumed): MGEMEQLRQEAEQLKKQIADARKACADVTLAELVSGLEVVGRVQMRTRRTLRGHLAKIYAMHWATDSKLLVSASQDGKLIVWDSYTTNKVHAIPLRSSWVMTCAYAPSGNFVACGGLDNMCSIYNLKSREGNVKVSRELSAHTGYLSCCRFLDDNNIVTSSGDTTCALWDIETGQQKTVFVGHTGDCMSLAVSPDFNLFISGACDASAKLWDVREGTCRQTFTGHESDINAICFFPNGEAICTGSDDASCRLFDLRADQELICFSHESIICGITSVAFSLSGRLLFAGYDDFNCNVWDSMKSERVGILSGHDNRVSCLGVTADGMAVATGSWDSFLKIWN
Sequence of thromboxane A2 receptor (TBXA2R) (Gα12) (O14610 1-66 partner limits assumed, species assumed): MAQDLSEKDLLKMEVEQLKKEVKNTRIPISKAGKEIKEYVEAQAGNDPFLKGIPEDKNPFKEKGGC

Regarding `Cc1cccc(N2CCN(C(=O)c3cc(S(=O)(=O)N(C)C)ccc3N3CCCC3)CC2)c1C` [ML184, 3-[[4-(2,3-dimethylphenyl)-1-piperazinyl]carbonyl]-N,N-dimethyl-4-(1-pyrrolidinyl)benzenesulfonamide], the “Mean (plotted), G protein dissociation BRET² signal” value (“Mean (plotted)” below) is recorded as 0.004412 (concentration 300 pM); 0.004455 (concentration 1e-9 M); 0.002143 (concentration 3e-9 M); 0.001783 (concentration 1e-8 M); 0.001091 (concentration 3e-8 M); -3.229e-5 (concentration 1e-7 M). Further, the “Mean (plotted)” value reads like this: (concentration 3e-7 M) 0.0009853; (concentration 1e-6 M) 0.004147; (concentration 3e-6 M) 0.0053; (concentration 1e-5 M) 0.009359; (concentration 3e-5 M) 0.007653.

On to `CCCCC[C@H](O)/C=C/[C@@H]1[C@@H](C/C=C\CCCC(=O)O)[C@H]2CO[C@@H]1C2` [U-46619], for which, under “TBXA2, Gα12”, the “Efficacy ± SEM (%)” value was found to be 100 ± 8%. The “pEC50 ± SEM” value (TBXA2, Gα12) is listed as 7.62 ± 0.15. Also, where the note is “TBXA2R via Gα12, read-out: potency (EC50)”, the EC50 worked out at 24 nM. The “Mean (plotted)” value is on record as 0.003425 (concentration 10 pM); 0.003325 (concentration 30 pM); -0.00015 (concentration 100 pM); -0.007 (concentration 300 pM); -0.0104 (concentration 1e-9 M); -0.01228 (concentration 3e-9 M). Also, the “Mean (plotted)” value reads like this: (concentration 1e-8 M) -0.02818; (concentration 3e-8 M) -0.04678; (concentration 1e-7 M) -0.06592; (concentration 3e-7 M) -0.07783; (concentration 1e-6 M) -0.08315.

As a reminder, the EC50 is the concentration needed to bring the measured effect to its halfway point.
